Where two headings read alike, the source gives them in different places.
Experiments:
CYP1A2 [1] = target: T1, CYP1A2 (Homo sapiens, UniProt P05177); assay: Inhibition of rCYP1A2 in microsomes from CYP450-overexpressing HEK293 cells; assay type: in vitro ADME; details: probe phenacetin; for Ki: rCYP1A2 microsomes
T1 sequence (P05177 1-516): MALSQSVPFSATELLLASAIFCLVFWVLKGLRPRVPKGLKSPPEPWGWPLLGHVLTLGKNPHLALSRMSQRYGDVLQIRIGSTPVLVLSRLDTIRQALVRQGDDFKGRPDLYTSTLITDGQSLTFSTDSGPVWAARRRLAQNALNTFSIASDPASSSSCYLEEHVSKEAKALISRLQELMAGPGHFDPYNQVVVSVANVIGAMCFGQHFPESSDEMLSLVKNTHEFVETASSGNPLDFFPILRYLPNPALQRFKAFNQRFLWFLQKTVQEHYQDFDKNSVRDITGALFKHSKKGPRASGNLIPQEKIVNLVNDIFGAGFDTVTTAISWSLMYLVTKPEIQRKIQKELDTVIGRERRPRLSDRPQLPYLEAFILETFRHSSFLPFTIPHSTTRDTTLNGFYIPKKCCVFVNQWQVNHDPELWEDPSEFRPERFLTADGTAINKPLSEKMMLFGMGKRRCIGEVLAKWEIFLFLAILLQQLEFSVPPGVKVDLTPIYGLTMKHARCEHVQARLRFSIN

CYP2B6 [2] = target: T2, CYP2B6 (Homo sapiens, UniProt P20813); assay: Inhibition of rCYP2B6 in microsomes from CYP450-overexpressing HEK293 cells; assay type: in vitro ADME; details: for IC50 / Ki: probe bupropion; for inhibition of activity against efavirenz: probe efavirenz (Supplemental Table 2)
T2 sequence (P20813 1-491): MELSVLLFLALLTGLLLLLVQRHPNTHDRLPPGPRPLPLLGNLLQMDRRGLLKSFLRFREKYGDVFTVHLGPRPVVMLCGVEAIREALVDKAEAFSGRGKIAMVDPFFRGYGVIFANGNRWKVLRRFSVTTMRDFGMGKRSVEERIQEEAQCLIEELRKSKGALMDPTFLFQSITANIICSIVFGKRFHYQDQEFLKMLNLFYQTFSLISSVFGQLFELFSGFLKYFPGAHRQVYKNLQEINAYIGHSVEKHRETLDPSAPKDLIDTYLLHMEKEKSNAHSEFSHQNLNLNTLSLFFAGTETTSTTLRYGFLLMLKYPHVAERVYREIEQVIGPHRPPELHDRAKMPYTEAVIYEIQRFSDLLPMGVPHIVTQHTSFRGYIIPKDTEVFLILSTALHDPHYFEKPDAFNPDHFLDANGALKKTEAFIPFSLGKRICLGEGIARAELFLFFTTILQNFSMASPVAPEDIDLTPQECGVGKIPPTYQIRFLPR

CYP2E1 [3] = target: T3, CYP2E1 (Homo sapiens, UniProt P05181); assay: Inhibition of rCYP2E1 in microsomes from CYP450-overexpressing HEK293 cells; assay type: in vitro ADME; details: for IC50 / Ki: probe chlorzoxazone; for decrease in activity: CYP2E1
T3 sequence (P05181 whole entry): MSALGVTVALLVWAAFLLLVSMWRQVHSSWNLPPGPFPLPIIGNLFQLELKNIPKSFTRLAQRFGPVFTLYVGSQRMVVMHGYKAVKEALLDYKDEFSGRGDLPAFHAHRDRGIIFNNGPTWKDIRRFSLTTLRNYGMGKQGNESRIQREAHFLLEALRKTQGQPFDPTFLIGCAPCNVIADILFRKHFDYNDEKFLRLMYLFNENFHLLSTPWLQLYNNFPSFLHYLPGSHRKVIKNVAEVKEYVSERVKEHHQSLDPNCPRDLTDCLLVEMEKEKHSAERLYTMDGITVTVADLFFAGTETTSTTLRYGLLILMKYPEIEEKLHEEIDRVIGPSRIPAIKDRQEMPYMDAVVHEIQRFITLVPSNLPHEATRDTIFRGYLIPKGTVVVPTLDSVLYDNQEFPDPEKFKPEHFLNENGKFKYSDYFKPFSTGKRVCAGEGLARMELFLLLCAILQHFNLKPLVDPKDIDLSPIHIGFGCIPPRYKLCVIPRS

CYP1A2 [4] = target: T1, CYP1A2; assay: Inhibition of CYP1A2 probe; assay type: in vitro ADME; details: for IC50: probe phenacetin; for Ki: probe phenacetin (CYP1A2)
CYP2B6 [5] = target: T2, CYP2B6; assay: Inhibition of CYP2B6 probe; assay type: in vitro ADME; details: for IC50: probe bupropion; for Ki: probe bupropion (CYP2B6)
CYP2E1 [6] = target: T3, CYP2E1; assay: Inhibition of CYP2E1 probe; assay type: in vitro ADME; details: for IC50: probe chlorzoxazone; for Ki: probe chlorzoxazone (CYP2E1)
CYP1A2 [7] = target: T1, CYP1A2; assay: IC50 shift study; assay type: in vitro ADME
CYP2B6 [8] = target: T2, CYP2B6; assay: IC50 shift study; assay type: in vitro ADME
CYP2E1 [9] = target: T3, CYP2E1; assay: IC50 shift study; assay type: in vitro ADME
[10] = Unbound fraction in incubation; assay type: in vitro ADME; details: human, human liver microsomes in buffer
CYP2C9 = CYP2C9 (Homo sapiens, UniProt P11712); details: for inhibition of activity against S-warfarin: rCYP2C9 microsomes, probe S-warfarin (Supplemental Table 2)
Sequence of CYP2C9 (P11712 whole entry): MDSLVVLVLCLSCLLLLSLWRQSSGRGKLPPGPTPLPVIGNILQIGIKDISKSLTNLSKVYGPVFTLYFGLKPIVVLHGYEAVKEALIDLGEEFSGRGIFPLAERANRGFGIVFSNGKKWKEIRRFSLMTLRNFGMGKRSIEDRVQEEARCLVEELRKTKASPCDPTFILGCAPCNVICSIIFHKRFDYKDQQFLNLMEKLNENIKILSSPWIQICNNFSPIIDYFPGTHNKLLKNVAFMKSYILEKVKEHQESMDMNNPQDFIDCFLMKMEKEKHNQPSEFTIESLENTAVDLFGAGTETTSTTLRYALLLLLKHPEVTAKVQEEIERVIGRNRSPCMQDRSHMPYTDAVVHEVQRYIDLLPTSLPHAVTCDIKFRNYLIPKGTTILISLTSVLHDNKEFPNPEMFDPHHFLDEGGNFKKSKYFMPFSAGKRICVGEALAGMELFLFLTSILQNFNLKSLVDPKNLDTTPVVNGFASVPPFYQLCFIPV

CYP2D6 = CYP2D6 (Homo sapiens, UniProt P10635); details: rCYP2D6 microsomes; probe bufuralol (Supplemental Table 2)
Sequence of CYP2D6 (P10635 whole entry): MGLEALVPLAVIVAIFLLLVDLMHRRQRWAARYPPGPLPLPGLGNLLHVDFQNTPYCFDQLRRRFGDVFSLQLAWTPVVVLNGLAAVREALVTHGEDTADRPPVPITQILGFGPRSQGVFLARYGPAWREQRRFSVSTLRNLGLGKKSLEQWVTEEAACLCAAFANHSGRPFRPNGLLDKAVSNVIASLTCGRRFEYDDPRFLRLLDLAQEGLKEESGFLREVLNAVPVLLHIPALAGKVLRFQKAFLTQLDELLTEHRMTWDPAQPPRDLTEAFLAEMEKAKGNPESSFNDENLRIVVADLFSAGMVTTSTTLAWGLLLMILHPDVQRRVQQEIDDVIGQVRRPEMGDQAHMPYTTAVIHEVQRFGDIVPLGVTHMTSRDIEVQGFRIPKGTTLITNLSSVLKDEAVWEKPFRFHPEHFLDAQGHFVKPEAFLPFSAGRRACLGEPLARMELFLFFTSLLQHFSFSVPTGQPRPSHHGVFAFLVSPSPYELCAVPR

[11] = plasma, ref Manini et al., 2015, Cox et al., 2019, cited from earlier work
[12] = Unbound fraction in incubation; assay type: in vitro ADME; details: human, HEK293 cell microsomes in buffer
[13] = IC50,u, rCYP2B6 microsomes, corrected for fu,inc
[14] = Ki,u, rCYP2B6 microsomes, corrected for fu,inc
[15] = IC50,u, rCYP2E1 microsomes, corrected for fu,inc
[16] = Ki,u, rCYP2E1 microsomes, corrected for fu,inc
[17] = IC50,u, HLM, corrected for fu,inc
[18] = Ki,u, HLM, corrected for fu,inc
[19] = IC50 (+), 30-min preincubation with NADPH
[20] = IC50 (−), 30-min preincubation without NADPH

Row | Structure (SMILES) | IC50 (CYP2B6 [2]; IC50, rCYP2B6 microsomes) | IC50 (CYP2B6 [2]; [13]) | Ki (CYP2B6 [2]; Ki, rCYP2B6 microsomes) | Ki (CYP2B6 [2]; [14]) | inhibition of activity against efavirenz (CYP2B6 [2]; rCYP2B6 microsomes) | IC50 (CYP2E1 [3]; IC50, rCYP2E1 microsomes) | IC50 (CYP2E1 [3]; [15]) | Ki (CYP2E1 [3]; Ki, rCYP2E1 microsomes) | Ki (CYP2E1 [3]; [16]) | IC50 (CYP2B6 [5]; IC50, HLM) | IC50 (CYP2B6 [5]; [17]) | Ki (CYP2B6 [5]; Ki, HLM) | Ki (CYP2B6 [5]; [18]) | IC50 (CYP2E1 [6]; IC50, HLM) | IC50 (CYP2E1 [6]; [17]) | Ki (CYP2E1 [6]; Ki, HLM) | Ki (CYP2E1 [6]; [18]) | IC50 (CYP2B6 [8]; [19]) | IC50 (CYP2B6 [8]; [20]) | IC50 (CYP2E1 [9]; [19]) | also measured
1 | C=C(C)[C@@H]1CCC(C)=C[C@H]1c1c(O)cc(CCCCC)cc1O [CBD, cannabidiol] | 2100 ± 610 nM | 130 ± 38 nM | 1100 ± 240 nM | 68 ± 15 nM | Strong inhibition | 590 ± 130 nM | 37 ± 8.1 nM | 340 ± 98 nM | 21 ± 6.1 nM | 2700 ± 2400 nM | 260 ± 240 nM | 2200 ± 530 nM | 220 ± 52 nM | 1400 ± 250 nM | 140 ± 25 nM | 590 ± 230 nM | 58 ± 23 nM | 1300 ± 450 nM | 1900 ± 660 nM | 900 ± 400 nM | IC50 (CYP1A2 [1]; IC50, rCYP1A2 microsomes): 2100 ± 930 nM; Ki (CYP1A2 [1]; Ki): 1900 ± 1200 nM; Ki (CYP1A2 [1]; Ki,u, corrected for fu,inc): 120 ± 74 nM; IC50 (CYP1A2 [4]; IC50, HLM): 6800 ± 1500 nM; IC50 (CYP1A2 [4]; [17]): 670 ± 150 nM; Ki (CYP1A2 [4]; Ki, HLM): 2100 ± 1100 nM; Ki (CYP1A2 [4]; [18]): 210 ± 110 nM; IC50 (CYP1A2 [7]; [19]): 1800 ± 310 nM; IC50 (CYP1A2 [7]; [20]): 2100 ± 250 nM; IC50 (CYP2E1 [9]; [20]): 1100 ± 660 nM; fraction unbound at 30 min, 50 µM [10]: 0.098 ± 0.023; inhibition of activity against S-warfarin (CYP2C9): Strong inhibition; inhibition of activity against bufuralol (CYP2D6): Strong inhibition; Cmax ([11]; 20-mg inhaled dose of CBD): 10.3 nM; Cmax ([11]; oral dose of 800 mg of CBD): 703 nM
2 | CCCCCc1cc(O)c2c(c1)OC(C)(C)c1ccc(C)cc1-2 [CBN, cannabinol] | 2100 ± 870 nM | 630 ± 260 nM | 620 ± 190 nM | 190 ± 57 nM | Strong inhibition | 920 ± 100 nM | 280 ± 30 nM | 210 ± 97 nM | 63 ± 29 nM | 1700 ± 590 nM | 880 ± 310 nM | 1700 ± 420 nM | 880 ± 220 nM | 1100 ± 720 nM | 570 ± 370 nM | 330 ± 91 nM | 170 ± 47 nM | 2000 ± 700 nM | 2100 ± 830 nM | 730 ± 210 nM | decrease in activity (CYP2B6 [2]; CYP2B6, 10 µM cannabinoid): 75%; decrease in activity (CYP2E1 [3]; 1 µM cannabinoid): 77%; decrease in activity (CYP2E1 [3]; 10 µM cannabinoid): 80%; IC50 (CYP2E1 [9]; [20]): 870 ± 150 nM; fraction unbound at 30 min, 50 µM [10]: 0.052 ± 0.081; fraction unbound at 30 min, 50 µM [12]: 0.03 ± 0.052; decrease in activity (CYP2C9; CYP2C9, 10 µM cannabinoid): 55%; inhibition of activity against S-warfarin (CYP2C9): Strong inhibition; inhibition of activity against bufuralol (CYP2D6): no inhibition was observed

Source: PMC11022895 (Drug Metabolism and Disposition, 2021)
